Test [1] concerns the target T1, Heat shock factor protein 1 (Mus musculus, UniProt P38532).
T1 sequence (P38532 whole entry): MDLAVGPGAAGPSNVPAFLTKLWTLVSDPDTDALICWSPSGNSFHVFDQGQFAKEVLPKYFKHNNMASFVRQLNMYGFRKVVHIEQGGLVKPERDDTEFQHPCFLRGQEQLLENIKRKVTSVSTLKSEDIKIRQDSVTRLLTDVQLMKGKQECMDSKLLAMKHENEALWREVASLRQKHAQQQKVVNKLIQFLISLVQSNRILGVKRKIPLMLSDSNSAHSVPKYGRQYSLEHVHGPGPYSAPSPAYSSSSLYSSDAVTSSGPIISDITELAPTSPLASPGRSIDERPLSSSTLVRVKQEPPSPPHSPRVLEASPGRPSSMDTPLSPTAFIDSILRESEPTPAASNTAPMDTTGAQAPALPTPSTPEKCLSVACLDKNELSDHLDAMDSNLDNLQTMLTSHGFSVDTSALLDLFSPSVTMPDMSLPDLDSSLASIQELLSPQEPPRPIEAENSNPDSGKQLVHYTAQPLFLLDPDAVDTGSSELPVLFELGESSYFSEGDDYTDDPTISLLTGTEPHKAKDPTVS
In words: inhibition of MG132-induced HSE-luciferase signal, confirmation, cell-based, NIH3T3, luminescence, dose retest (AID 2382).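 Note: NIH3T3 fibroblasts with HSF1-driven luciferase reporter stressed by proteasome inhibitor MG132; luminescence from HSF1-driven luciferase expression after 8 hours of MG132 stress.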 The class given is functional.

The target in another test is T2, Caspase-3 (Homo sapiens, UniProt P42574).
T2 sequence (P42574 whole entry): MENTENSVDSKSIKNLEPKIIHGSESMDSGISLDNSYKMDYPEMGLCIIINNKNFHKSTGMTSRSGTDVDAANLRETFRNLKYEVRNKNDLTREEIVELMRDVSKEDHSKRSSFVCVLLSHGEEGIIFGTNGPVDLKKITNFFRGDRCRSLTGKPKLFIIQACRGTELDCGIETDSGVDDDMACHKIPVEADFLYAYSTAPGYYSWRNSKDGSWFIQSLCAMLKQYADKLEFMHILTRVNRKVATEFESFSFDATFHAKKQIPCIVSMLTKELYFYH
In words: procaspase-3 activation potency of dual hits, dose response, counter-screen for dual procaspase-3/7 activator project, biochemical, absorbance, PC-3 D3A mutant (AID 504328).

Test [2] has as its target T3, Microphthalmia-associated transcription factor (Homo sapiens, UniProt O75030).
T3 sequence (O75030 whole entry): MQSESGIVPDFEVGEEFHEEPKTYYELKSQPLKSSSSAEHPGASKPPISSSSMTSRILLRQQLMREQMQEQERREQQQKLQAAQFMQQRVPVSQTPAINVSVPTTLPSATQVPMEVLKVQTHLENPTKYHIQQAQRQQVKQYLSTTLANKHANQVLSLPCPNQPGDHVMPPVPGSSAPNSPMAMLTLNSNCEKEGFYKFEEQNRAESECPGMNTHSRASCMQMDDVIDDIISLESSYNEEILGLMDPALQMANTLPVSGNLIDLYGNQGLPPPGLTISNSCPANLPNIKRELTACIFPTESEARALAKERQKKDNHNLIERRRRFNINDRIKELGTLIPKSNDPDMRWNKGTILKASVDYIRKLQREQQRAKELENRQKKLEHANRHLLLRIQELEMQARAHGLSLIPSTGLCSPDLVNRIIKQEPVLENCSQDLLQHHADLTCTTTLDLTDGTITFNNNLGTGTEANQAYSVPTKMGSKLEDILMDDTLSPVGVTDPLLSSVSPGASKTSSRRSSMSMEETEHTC
In words: TRPM1 promoter luciferase signal decrease, dose response, MITF inhibitor project, cell-based, SK-MEL-5, cherry-picked, set 3 (AID 493073).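 Note: SK-MEL-5 melanoma cells with luciferase driven by the MITF target TRPM1 promoter.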 The class given is functional.

Another test addresses Caspase-7 (Homo sapiens, UniProt P55210). Put plainly: procaspase-7 activators, dose response, dual procaspase-3/-7 activator project, biochemical, absorbance, human (AID 504330).
A further test has as its target Wee1-like protein kinase (Homo sapiens, UniProt P30291). Put plainly: G2/M cell cycle arrest in HeLa, late-stage follow-up, mechanism study for Wee1 degradation inhibitor project, FACS, panel member Wee1 Degradation (AID 2088).
Test [3] addresses G2/mitotic-specific cyclin-B1 (Homo sapiens, UniProt P14635). In words: G2/M cell cycle arrest in HeLa, late-stage follow-up, mechanism study for Wee1 degradation inhibitor project, FACS, panel member Cyclin B Degradation (AID 2088).
For test [4], the target named is Cyclin-dependent kinase 5/CDK5 activator 1 (Homo sapiens, UniProt Q00535). Put plainly: CDK5/p35 kinase inhibitors, dose response, biochemical, cherry-picked samples, set 2 (AID 504545).
The target in test [5] is Heat shock protein HSP 90-alpha (Homo sapiens, UniProt P07900). The class given is functional, organism-based.
Test [6] deals with Dual specificity tyrosine-phosphorylation-regulated kinase 1A (Rattus norvegicus, UniProt Q63470). The class given is biochemical, Homo sapiens.
The nature of test [7]: PhoP regulon inhibitors in S. Typhimurium, SAR follow-up, synthesized compounds, round 3, GFP (AID 434996). The class given is functional.
Test [8] concerns the target Metabotropic glutamate receptor 4 (Homo sapiens, UniProt Q14833). Put plainly: Modulation of the Metabotropic Glutamate Receptor mGluR4: Potency at human mGluR4. Modulation of intracellular Ca2+ using Fluo-4, AM, in CHO expressing recombinant receptor [Related pubchem assays (depositor defined):AID2437, AID2807]. The class given is functional, cell-based.
The target in test [9] is Metabotropic glutamate receptor 4 (Rattus norvegicus, UniProt P31423). In words: Modulation of the Metabotropic Glutamate Receptor mGluR4: Rat PAM Potency. [Related pubchem assays (depositor defined):AID2437, AID2807]. The class given is functional.
In test [10] the target is Eukaryotic translation initiation factor 4H (Homo sapiens, UniProt Q15056). In words: human eIF4H binding inhibitors, primary screen, translation initiation inhibitor project, biochemical, uHTS, fluorescence polarization (AID 2012). For orientation: Fluorescence polarisation rises when a labelled molecule tumbles more slowly, as on binding a larger partner.
In test [11] the target is Polyadenylate-binding protein 1 (Homo sapiens, UniProt P11940). Put plainly: PABP poly(A) RNA binding inhibitors, primary screen, biochemical, fluorescence polarization, uHTS (AID 2014).

The source made the active and inactive calls.

Sequence of Polyadenylate-binding protein 1 (P11940 whole entry): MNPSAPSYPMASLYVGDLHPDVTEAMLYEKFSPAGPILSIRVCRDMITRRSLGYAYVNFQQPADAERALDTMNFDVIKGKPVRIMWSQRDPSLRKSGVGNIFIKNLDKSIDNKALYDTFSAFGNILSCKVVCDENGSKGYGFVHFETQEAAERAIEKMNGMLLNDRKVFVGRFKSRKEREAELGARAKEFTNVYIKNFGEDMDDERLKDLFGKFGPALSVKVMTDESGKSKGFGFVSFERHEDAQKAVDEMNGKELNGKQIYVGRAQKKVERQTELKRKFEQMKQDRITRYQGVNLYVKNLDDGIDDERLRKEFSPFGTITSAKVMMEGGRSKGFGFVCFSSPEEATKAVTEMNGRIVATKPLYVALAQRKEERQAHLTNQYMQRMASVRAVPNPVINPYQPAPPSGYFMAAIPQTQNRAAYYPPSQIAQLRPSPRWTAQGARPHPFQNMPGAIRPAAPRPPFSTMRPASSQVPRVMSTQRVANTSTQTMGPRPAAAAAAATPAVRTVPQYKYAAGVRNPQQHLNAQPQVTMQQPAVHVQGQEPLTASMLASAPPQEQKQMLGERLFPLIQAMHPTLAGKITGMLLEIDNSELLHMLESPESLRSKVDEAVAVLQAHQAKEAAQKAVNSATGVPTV
Sequence of Cyclin-dependent kinase 5/CDK5 activator 1 (Q00535 whole entry): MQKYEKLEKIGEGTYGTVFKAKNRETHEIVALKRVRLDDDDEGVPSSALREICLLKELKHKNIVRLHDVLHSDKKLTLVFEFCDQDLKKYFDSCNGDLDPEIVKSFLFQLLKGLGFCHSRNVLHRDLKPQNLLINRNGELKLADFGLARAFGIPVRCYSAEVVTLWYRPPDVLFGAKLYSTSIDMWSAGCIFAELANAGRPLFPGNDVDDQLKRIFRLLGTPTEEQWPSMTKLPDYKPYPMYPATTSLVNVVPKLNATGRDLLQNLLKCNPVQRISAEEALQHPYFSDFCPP
Sequence of Cyclin-dependent kinase 5/CDK5 activator 1 (Q15078 whole entry, further chain): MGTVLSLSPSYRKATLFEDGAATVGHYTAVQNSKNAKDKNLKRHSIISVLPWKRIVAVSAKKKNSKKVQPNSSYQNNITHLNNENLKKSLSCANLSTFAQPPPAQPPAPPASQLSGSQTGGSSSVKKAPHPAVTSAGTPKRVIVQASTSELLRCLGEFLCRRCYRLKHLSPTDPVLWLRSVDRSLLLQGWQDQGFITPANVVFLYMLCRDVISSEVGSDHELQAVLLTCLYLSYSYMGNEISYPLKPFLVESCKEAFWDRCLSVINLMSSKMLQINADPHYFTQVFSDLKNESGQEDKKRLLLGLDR
Sequence of Wee1-like protein kinase (P30291 whole entry): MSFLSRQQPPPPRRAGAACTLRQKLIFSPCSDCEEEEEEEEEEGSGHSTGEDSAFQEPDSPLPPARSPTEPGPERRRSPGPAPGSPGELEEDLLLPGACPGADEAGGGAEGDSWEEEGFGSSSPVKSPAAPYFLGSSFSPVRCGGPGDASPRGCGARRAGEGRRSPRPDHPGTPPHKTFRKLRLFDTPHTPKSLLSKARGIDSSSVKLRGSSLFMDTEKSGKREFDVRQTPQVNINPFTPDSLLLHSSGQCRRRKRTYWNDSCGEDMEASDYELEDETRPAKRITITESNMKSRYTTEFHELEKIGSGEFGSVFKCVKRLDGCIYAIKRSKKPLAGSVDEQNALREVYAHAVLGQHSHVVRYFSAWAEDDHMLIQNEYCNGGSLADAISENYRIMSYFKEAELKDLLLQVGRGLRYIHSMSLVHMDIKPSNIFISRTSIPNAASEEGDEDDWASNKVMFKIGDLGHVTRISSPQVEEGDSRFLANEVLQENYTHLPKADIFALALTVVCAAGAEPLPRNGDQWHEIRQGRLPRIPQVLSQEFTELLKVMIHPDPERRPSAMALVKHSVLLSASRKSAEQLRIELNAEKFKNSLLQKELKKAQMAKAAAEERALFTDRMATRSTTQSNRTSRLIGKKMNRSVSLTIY
Sequence of Metabotropic glutamate receptor 4 (Rattus norvegicus, UniProt P31423) (P31423 whole entry): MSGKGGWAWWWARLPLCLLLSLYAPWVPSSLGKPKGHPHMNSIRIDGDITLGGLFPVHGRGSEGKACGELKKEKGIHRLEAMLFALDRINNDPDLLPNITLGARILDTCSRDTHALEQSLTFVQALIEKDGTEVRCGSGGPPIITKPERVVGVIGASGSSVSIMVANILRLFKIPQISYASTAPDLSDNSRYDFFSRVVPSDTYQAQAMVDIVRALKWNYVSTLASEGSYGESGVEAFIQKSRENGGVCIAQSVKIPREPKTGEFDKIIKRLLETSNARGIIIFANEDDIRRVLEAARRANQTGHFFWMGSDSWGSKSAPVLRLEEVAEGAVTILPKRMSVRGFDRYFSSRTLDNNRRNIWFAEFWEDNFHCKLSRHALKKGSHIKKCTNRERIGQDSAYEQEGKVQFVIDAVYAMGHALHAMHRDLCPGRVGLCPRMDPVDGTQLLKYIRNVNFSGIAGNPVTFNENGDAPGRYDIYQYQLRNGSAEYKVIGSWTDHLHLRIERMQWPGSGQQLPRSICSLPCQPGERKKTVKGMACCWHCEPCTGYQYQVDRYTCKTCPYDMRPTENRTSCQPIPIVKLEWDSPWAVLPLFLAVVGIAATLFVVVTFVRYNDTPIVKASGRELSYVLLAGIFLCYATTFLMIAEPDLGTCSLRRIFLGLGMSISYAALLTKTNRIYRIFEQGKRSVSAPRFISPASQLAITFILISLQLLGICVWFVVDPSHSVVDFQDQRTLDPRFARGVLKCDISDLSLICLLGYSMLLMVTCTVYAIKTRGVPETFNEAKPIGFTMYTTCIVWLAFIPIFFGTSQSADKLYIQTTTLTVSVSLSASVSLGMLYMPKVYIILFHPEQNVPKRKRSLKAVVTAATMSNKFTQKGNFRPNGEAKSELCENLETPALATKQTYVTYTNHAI
Sequence of G2/mitotic-specific cyclin-B1 (P14635 whole entry): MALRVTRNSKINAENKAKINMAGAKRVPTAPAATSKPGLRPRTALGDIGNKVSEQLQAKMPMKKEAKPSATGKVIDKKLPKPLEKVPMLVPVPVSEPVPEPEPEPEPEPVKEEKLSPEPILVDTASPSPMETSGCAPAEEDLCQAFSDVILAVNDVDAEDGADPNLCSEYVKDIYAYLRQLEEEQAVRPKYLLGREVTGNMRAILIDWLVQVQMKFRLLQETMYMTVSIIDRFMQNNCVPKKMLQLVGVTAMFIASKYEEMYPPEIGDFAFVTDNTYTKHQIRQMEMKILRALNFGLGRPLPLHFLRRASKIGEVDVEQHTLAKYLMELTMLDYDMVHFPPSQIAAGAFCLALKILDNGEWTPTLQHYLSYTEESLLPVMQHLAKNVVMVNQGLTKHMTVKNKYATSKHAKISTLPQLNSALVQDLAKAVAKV
Sequence of Metabotropic glutamate receptor 4 (Homo sapiens, UniProt Q14833) (Q14833 whole entry): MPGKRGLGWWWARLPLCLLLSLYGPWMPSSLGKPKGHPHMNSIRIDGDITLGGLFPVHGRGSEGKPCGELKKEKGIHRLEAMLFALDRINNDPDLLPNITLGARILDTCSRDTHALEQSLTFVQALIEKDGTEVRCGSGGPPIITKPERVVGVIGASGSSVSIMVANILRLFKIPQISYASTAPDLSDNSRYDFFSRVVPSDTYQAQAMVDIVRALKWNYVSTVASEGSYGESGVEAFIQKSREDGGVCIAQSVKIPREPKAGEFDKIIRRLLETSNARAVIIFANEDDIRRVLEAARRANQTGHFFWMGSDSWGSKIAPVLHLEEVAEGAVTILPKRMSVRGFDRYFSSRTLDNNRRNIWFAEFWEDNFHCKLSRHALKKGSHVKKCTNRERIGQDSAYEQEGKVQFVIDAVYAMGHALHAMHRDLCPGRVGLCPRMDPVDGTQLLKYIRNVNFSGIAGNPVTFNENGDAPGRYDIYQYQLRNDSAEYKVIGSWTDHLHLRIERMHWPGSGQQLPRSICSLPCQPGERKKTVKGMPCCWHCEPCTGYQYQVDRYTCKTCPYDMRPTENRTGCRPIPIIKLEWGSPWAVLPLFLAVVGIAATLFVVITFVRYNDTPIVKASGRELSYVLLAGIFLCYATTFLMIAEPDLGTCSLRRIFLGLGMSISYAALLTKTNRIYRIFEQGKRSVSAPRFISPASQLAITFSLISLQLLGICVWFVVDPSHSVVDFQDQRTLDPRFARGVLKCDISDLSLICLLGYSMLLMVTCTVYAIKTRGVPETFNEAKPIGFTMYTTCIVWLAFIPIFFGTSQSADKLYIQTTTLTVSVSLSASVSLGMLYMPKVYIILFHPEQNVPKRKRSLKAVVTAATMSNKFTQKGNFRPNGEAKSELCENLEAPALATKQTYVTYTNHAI

Turning to `O=C(Nc1ccc2c(c1)OCCO2)c1coc2ccccc2c1=O`, the half-maximal effective concentration (EC50) is > 195 µM (not active) in test [1], > 85.3 µM (inactive) on Caspase-3 and > 85.3 µM (inactive) on Caspase-7. Also, the AC50 in test [2] was 46 µM (active).

For `CCc1cccc(NC(=O)CCCOc2cc(=O)n(C)c3ccccc23)c1`, the EC50 (on Wee1-like protein kinase; in [3]) was > 49.7 µM (inactive) throughout.

As to `Nc1cc2c(cc1[N+](=O)[O-])-c1ccccc1C2=NO`, the results for the AC50 in [4], in [5] and in [6] were 41.2 µM (active), 8.8 µM (active) and 0.143 µM (active), respectively.

On to `COc1ccccc1CNC(=S)Nc1ccncc1`, for which the half-maximal inhibitory concentration (IC50) in test [7] is > 150 µM (active).

For `O=C(Nc1ccc(Cl)c(Cl)c1)c1ccsc1`, the half-maximal effective concentration (EC50) in test [8] is 12.7 µM (active); in [9], 9.23 µM (active).

`CN(C)CCNc1c2c(nc3ccccc13)CCC2`: the IC50 was 99.1 µM (active) in [10] and 32.8 µM (active) in test [11].

One may read the EC50 as the concentration that produces a half-maximal response. For orientation: AC50 means the concentration at which the activity in the assay is half-maximal. A word on the IC50: it is the midpoint of a concentration-inhibition curve.

The values above are taken from ChEMBL document CHEMBL1201862, “PubChem BioAssay data set” (2004).
